# From patent US8354407B2 (Boehringer Ingelheim International GmbH, priority 2006, dated 2013)
# Molecular target: T1, full-length human PKCα enzyme (Homo sapiens, UniProt P17252)
# T1 construct: full-length human PKCα enzyme; purchased Upstate Biotechnology
# Assay: Assessment of PKC-α Inhibitory Activity (MALDI-TOF kinase assay)
# Type: biochemical
# Conditions: full-length human PKCα 0.12 μg/ml; ATP 45 μM; neurogranin 28-43 peptide 22 μM; 30 minute incubation at 24° C.; MALDI-TOF MS readout
# Description: Measurement of PKCα enzyme activity is performed using full-length human PKCα enzyme (Upstate Biotechnology) at a final concentration of 0.12 μg/ml in a kinase assay buffer (0.09 mg/ml bovine serum albumin (BSA), 210 μM ethylenediaminetetraacetic acid (EDTA), 360 μM CaCl2, 1 mM Tris-HCl, pH=7.5, 0.5 mM MgCl2, 0.015 mg/ml phosphatidylserine and 0.015 mg/ml diacylglycerol). The reaction is initiated by addition of adenosine triphosphate (ATP; final concentration 45 μM) and a peptide substrate consisting of amino acids 28-43 (Ala-Ala-Lys-Ile-Gln-Ala-Ser-Phe-Arg-Gly-His-Met-Ala-Arg-Lys-Lys) of neurogranin (Promega; final concentration 22 μM). After a 30 minute incubation at 24° C. the reaction is terminated by adding 5 μL of the reaction mixture into 50 μL of MALDI matrix solution (5 mg/ml α-cyano-4-hydroxycinnamic acid in 50% Acetonitrile/H2O, 0.1% TFA, 5 mM ammonium phosphate). Two microliters of the stopped reaction mixture is transferred onto a MALDI-TOF mass spectrometer target plate.
# All spectra are collected on an Applied Biosystems 4700 Proteomics Analyzer MALDI-TOF MS equipped with a Nd:YAG laser (355 nm, 3 ns pulse width, 200 Hz repetition rate) in negative ion reflector mode. The system is operated with 4700 Explorer software, version 3.0. Automated acquisition parameters are adjusted to capture and average only those individual spectra within defined success criteria. Specifically, signal intensities for the substrate peptide are set to a minimum threshold of 3000 counts and a maximum intensity of 65,000 counts. This ensured that neither null spectra nor saturated spectra are averaged into the final readout. Between 1000 and 1500 laser shots are averaged for each sample. Data are collected in triplicate from 3 successive days to capture the maximum variability related to preparation of enzyme reaction, transfer of samples to MALDI target plates, data collection, and data extraction.
# The isotope cluster areas for each peptide substrate and product peaks are extracted into a Microsoft Excel worksheet from the 10×10 array of spectral data simultaneously using the automated analysis function provided within the 4700 Explore software. The isotope cluster area is defined by the software algorithm based on the molecular weight and the general elemental composition of the peptides. The percent conversion (% C) of substrate to product is calculated as the cluster area of the product (P) divided by the sum of the cluster areas of the substrate (S) and the product multiplied by 100 as represented by the following equation: […]
# For dose-dependent inhibition studies, the inhibition is plotted as a % Maximal Activity (% MA). Equation one is a measure of the ratio of product to substrate then solving for the % C. However, to measure inhibition of the enzyme activity, one must measure the degree to which that activity (% C) is curtailed. Thus the dose-dependant inhibition data is plotted as % MA where the maximal activity is the % C measured in control reactions with no inhibitor as represented by the following equation: […]
row,SMILES,IC50 [nM]
1,O=C1CCCN1CCCNc1ccnc(Nc2cccc(Cl)c2)n1 [1-{3-[2-(3-Chlorophenylamino)-pyrimidin-4-ylamino]-propyl}-pyrrolidin-2-one],710
2,O=S(=O)(NCc1cccnc1)c1cccc(Nc2nccc(NCCCN3CCOCC3)n2)c1 [3-[4-(3-Morpholin-4-yl-propylamino)-pyrimidin-2-ylamino]-N-(pyridin-3-ylmethyl)-benzenesulfonamide],52
3,NS(=O)(=O)c1cccc(Nc2nccc(NCCCN3CCOCC3)n2)c1 [3-[4-(3-Morpholin-4-yl-propylamino)-pyrimidin-2-ylamino]-benzenesulfonamide],14
4,CC(C)NC(=O)c1cccc(Nc2nccc(NCCCN3CCCC3)n2)c1 [N-Isopropyl-3-[4-(3-pyrrolidin-1-yl-propylamino)-pyrimidin-2-ylamino]-benzamide],344
5,"FC(F)(F)c1cc(Nc2nccc(NCCCN3CCOCC3)n2)cc(C(F)(F)F)c1 [N^2-(3,5-Bis-trifluoromethyl-phenyl)-N^4-(3-morpholin-4-yl-propyl)-pyrimidine-2,4-diamine]",21
6,"Clc1cccc(Nc2nccc(NCC3CCNCC3)n2)c1 [N^2-(3-Chloro-phenyl)-N^4-piperidin-4-ylmethyl-pyrimidine-2,4-diamine]",37
7,"CN1CCCC(CNc2ccnc(Nc3cccc(Cl)c3)n2)C1 (stereo not drawn) [N^2-(3-Chlorophenyl)-N^4-(1-methylpiperidin-3-ylmethyl)-pyrimidine-2,4-diamine]",4
8,"CN1CCC(CNc2ccnc(Nc3cccc(Cl)c3)n2)CC1 [N^2-(3-Chlorophenyl)-N^4-(1-methylpiperidin-4-yl-methyl)-pyrimidine-2,4-diamine]",30
9,"Clc1cccc(Nc2nccc(NCCCN3CCCC3)n2)c1 [N^2-(3-Chlorophenyl)-N^4-(3-pyrrolidin-1-yl-propyl)-pyrimidine-2,4-diamine]",3
10,"CN1C2CCC1CC(Nc1ccnc(Nc3cccc(Cl)c3)n1)C2 (stereo not drawn) [N^2-(3-Chlorophenyl)-N^4-(8-methyl-8-azabicyclo[3.2.1]oct-3-yl)-pyrimidine-2,4-diamine]",4
11,"CN1CCCC1CCNc1ccnc(Nc2cccc(Cl)c2)n1 (stereo not drawn) [N^2-(3-Chlorophenyl)-N^4-[2-(1-methylpyrrolidin-2-yl)-ethyl]-pyrimidine-2,4-diamine]",0.4
12,"CN1CCN(CCCNc2ccnc(Nc3cccc(Cl)c3)n2)CC1 [N^2-(3-Chlorophenyl)-N^4-[3-(4-methylpiperazin-1-yl)-propyl]-pyrimidine-2,4-diamine]",5
13,"Clc1cccc(Nc2nccc(NCC3CNCCO3)n2)c1 (stereo not drawn) [N^2-(3-Chlorophenyl)-N^4-morpholin-2-ylmethyl-pyrimidine-2,4-diamine]",23
14,"Clc1cccc(Nc2nccc(NCC3CCCNC3)n2)c1 (stereo not drawn) [N^2-(3-Chlorophenyl)-N^4-piperidin-3-ylmethyl-pyrimidine-2,4-diamine]",25
15,"CN1CC[C@@H](CNc2ccnc(Nc3cccc(Cl)c3)n2)C1 [N^2-(3-Chlorophenyl)-N^4-{[(3S)-1-methylpyrrolidin-3-yl]methyl}pyrimidine-2,4-diamine]",13
16,"CN1CC[C@H](CNc2ccnc(Nc3cccc(Cl)c3)n2)C1 [N^2-(3-Chlorophenyl)-N^4—[(3R)-1-methylpyrrolidin-3-ylmethyl]-pyrimidine-2,4-diamine]",7
17,"CC(C)c1cccc(Nc2nccc(NCCCN3CCOCC3)n2)c1 [N^2-(3-Isopropylphenyl)-N^4-(3-morpholin-4-yl-propyl)-pyrimidine-2,4-diamine]",80
18,"Cc1cccc(Nc2nccc(NCCCN3CCCC3)n2)c1 [N^2-(3-Methylphenyl)-N^4-(3-pyrrolidin-1-yl-propyl)-pyrimidine-2,4-diamine]",40
19,"O=[N+]([O-])c1cccc(Nc2nccc(NCCCN3CCOCC3)n2)c1 [N^2-(3-Nitrophenyl)-N^4-(3-morpholin-4-yl-propyl)-pyrimidine-2,4-diamine]",1
20,"O=[N+]([O-])c1cccc(Nc2nccc(NCCCN3CCCC3)n2)c1 [N^2-(3-Nitrophenyl)-N^4-(3-pyrrolidin-1-yl-propyl)-pyrimidine-2,4-diamine]",2
21,"Clc1cc(Nc2nccc(NCCCN3CCCC3)n2)ccc1OCc1ccccc1 [N^2-(4-(Benzyloxy)-3-chlorophenyl)-N^4-(3-pyrrolidin-1-yl-propyl)-pyrimidine-2,4-diamine]",40
22,"c1cc(Nc2nccc(NCCCN3CCOCC3)n2)cc(-c2cccc3[nH]ccc23)c1 [N^2-[3-(1H-Indol-4-yl)-phenyl]-N^4-(3-morpholin-4-yl-propyl)-pyrimidine-2,4-diamine]",12
23,"CN1CCN(S(=O)(=O)c2cccc(Nc3nccc(NCCCN4CCOCC4)n3)c2)CC1 [N^2-[3-(4-Methyl-piperazine-1-sulfonyl)phenyl]-N^4-(3-morpholin-4-ylpropyl)-pyrimidine-2,4-diamine]",83
24,"CN(C)c1cccc(Nc2nccc(NCCCN3CCOCC3)n2)c1 [N^2-[3-(N,N-dimethylamino)-phenyl]-N^4-(3-morpholin-4-yl-propyl)-pyrimidine-2,4-diamine]",53
25,"COc1cccc(Nc2nccc(NCCCN3CCCC3)n2)c1 [N^2-[3-Methoxyphenyl]-N^4-(3-pyrrolidin-1-yl-propyl)-pyrimidine-2,4-diamine]",16
26,"FC(F)(F)c1cccc(Nc2nccc(NCCCN3CCCC3)n2)c1 [N^2-[3-Trifluoromethyl-phenyl]-N^4-(3-pyrrolidin-1-yl-propyl)-pyrimidine-2,4-diamine]",0.5

# The remaining lines, values ahead:
row,IC50 [nM],SMILES
1,23,O=S(=O)(Nc1ccccc1)c1cccc(Nc2nccc(NCCCN3CCOCC3)n2)c1
2,12,O=C(Nc1cccc(Cl)c1)c1cccc(Nc2nccc(NCCCN3CCCC3)n2)c1 [N-(3-Chlorophenyl)-3-[4-(3-pyrrolidin-1-yl-propylamino)-pyrimidin-2-ylamino]-benzamide]
3,25,O=C(Nc1cccc(Nc2nccc(NCCCN3CCOCC3)n2)c1)c1ccccc1 [N-{3-[4-(3-Morpholin-4-yl-propylamino)-pyrimidin-2-ylamino]-phenyl}-benzamide]
4,112,O=C(Nc1cccc(Nc2nccc(NCCCN3CCOCC3)n2)c1)c1cccnc1 [N-{3-[4-(3-Morpholin-4-yl-propylamino)-pyrimidin-2-ylamino]-phenyl}-nicotinamide]
5,1,"Brc1cccc(Nc2nccc(NCCCN3CCOCC3)n2)c1 [N^2-(3-Bromophenyl)-N^4-(3-morpholin-4-yl-propyl)-pyrimidine-2,4-diamine]"
6,2,"Clc1cccc(Nc2nccc(NCCCN3CCOCC3)n2)c1 [N^2-(3-Chlorophenyl)-N^4-(3-morpholin-4-yl-propyl)-pyrimidine-2,4-diamine]"
7,64,"Fc1cccc(Nc2nccc(NCCCN3CCOCC3)n2)c1 [N^2-(3-Fluorophenyl)-N^4-(3-morpholin-4-yl-propyl)-pyrimidine-2,4-diamine]"
8,50,"c1ccc(Oc2cccc(Nc3nccc(NCCCN4CCOCC4)n3)c2)cc1 [N^2-(3-Phenoxyphenyl)-N^4-(3-morpholin-4-yl-propyl)-pyrimidine-2,4-diamine]"
9,3,"c1ccc(-c2cccc(Nc3nccc(NCCCN4CCOCC4)n3)c2)cc1 [N^2-Biphenyl-3-yl-N^4-(3-morpholin-4-yl-propyl)-pyrimidine-2,4-diamine]"
10,18,"c1cc(Cc2cc3ccccc3[nH]2)cc(Nc2nccc(NCCCN3CCOCC3)n2)c1 [N^2-[3-(1H-Indol-2-ylmethyl)-phenyl]-N^4-(3-morpholin-4-yl-propyl)-pyrimidine-2,4-diamine]"
11,40,"c1cc(Nc2nccc(NCCCN3CCOCC3)n2)cc(-c2nc3ccccc3s2)c1 [N^2-[3-(Benzo[d]thiazol-2-yl)-phenyl]-N^4-(3-morpholin-4-yl-propyl)-pyrimidine-2,4-diamine]"
12,28,"c1cncc(-c2cccc(Nc3nccc(NCCCN4CCOCC4)n3)c2)c1 [N^2-[3-(Pyridin-3-yl)-phenyl]-N^4-(3-morpholin-4-yl-propyl)-pyrimidine-2,4-diamine]"
13,465,OCc1cccc(Nc2nccc(NCCCN3CCOCC3)n2)c1 [{3-[4-(3-Morpholin-4-yl-propylamino)-pyrimidin-2-ylamino]-phenyl}-methanol]
